# Test results from publication PMC2779801, “Comparative biochemical analysis of HIV-1 subtype B and C integrase enzymes” (Retrovirology, 2009).
# Like-named read-outs stand apart in the source and are kept apart here.
# What was measured:
# [1] = biological target: T1, HIV-1 subtype B integrase (Human immunodeficiency virus type 1, UniProt P12497); assay: Disintegration assay; format: biochemical; conditions: increasing inhibitor concentration
# Source text: Oligonucleotides were purchased from Invitrogen and then PAGE purified.
# ATP (Perkin Elmer). Unincorporated nucleotides were discarded utilizing 'NucAway columns' (Ambion).
# Subtype C virus BG-05 = assay: Cell culture phenotypic drug susceptibility assay (p24 antigen) in cord blood mononuclear cells; format: cell-based, HIV-1
# Experimental: (§1) Recombinant viruses (subtype B) (pNL4-3 and IIIb) and viruses obtained from either our primary HIV infection cohort or from long-term infected patients (subtype B and C) were amplified as previously described. Drug susceptibility was measured in cell culture-based phenotypic assays using cord blood mononuclear cells to determine the extent of […] HIV replication blockage by integrase inhibitors.
# Subtype B virus 5331 = assay: as above; format: cell-based, HIV-1; conditions: read-out: EC50 Values
# Experimental: as §1
# Subtype C virus 96USNG31 = assay: as above; format: cell-based, HIV-1
# Experimental: as §1
# Subtype B virus IIIb = assay: as above; format: cell-based, HIV-1; conditions: read-out: EC50 Values
# Experimental: as §1
# Subtype C virus HB-1 = assay: as above; format: cell-based, HIV-1
# Experimental: as §1
# Subtype C virus 4742 = assay: as above; format: cell-based, HIV-1
# Experimental: as §1
# Subtype B virus pNL4-3 = assay: as above; format: cell-based, HIV-1; conditions: read-out: EC50 Values
# Experimental: as §1
# [2] = biological target: T2, HIV-1 subtype C integrase (Human immunodeficiency virus type 1, UniProt Q9QN97, C991S/F896H); conditions: for Inhibition of disintegration: increasing inhibitor concentration
# Experimental: (§2) Oligonucleotide-based assays were performed to measure integrase enzymatic activities. All oligonucleotide probes were gel purified and phenol-chloroform extracted. INT1 oligonucleotide was radiolabeled using the T4 Polynucleotide Kinase kit (Ambion) with [γ-^32P] ATP (Perkin Elmer). Unincorporated nucleotides were discarded utilizing 'NucAway columns' (Ambion). A double stranded oligonucleotide substrate was obtained by mixing equal concentrations of INT1 and INT2, heating to 95°C and stepwise cooling to 37°C in 100 mM NaCl. The oligonucleotides T35 and SK70 were annealed to form a second double stranded oligonucleotide. INT1/2 mimicked the HIV-1 U5 long terminal repeat (LTR) and acted as a substrate for 3' processing. T35/SK70 acted as a site for integration of the processed INT1/2 fragment and mimicked host DNA.
# Concentrations of enzymes used in the following reactions were optimized in a series of preliminary experiments. Integrase reactions were performed in a buffer containing 20 mM Hepes (pH 7.5), 30 mM NaCl, 1 mM dithiothreitol, 125 μM ZnCl2 and 0.125 pmol dsDNA substrate (INT1/2) in a final volume of 10 μl. Recombinant integrase (3.1 μM), and varying concentrations of integrase inhibitors or water/DMSO as control, were mixed and preincubated at 37°C for 15 min. 3' processing reactions were initiated by addition of 7.5 mM of MnCl2 and incubated at 37°C for 3 min unless otherwise indicated. For strand transfer reactions, 1.25 pmol of dsDNA template (T35/SK70) were added and the reaction mixture was further incubated at 37°C for 1 hour unless otherwise indicated. Reactions were stopped by adding 5 times the volume of gel loading dye (formamide containing 1% SDS, 0.25% bromophenol blue, and 0.25% xylene cyanol) and heating to 95°C. Reaction products were separated on 6% acrylamide, 7 M urea sequencing gels. Gels were dried and exposed utilizing phosphorimager screens (GE Healthcare) and scanned in a Molecular Dynamics Typhoon Phosphorimager (GE Healthcare). Product analysis and quantification were conducted using ImageQuant and GraphPad Prism 4.0 software. Quantification of standard error of the mean (SEM) was performed with GraphPad Prism 4.0 software.
# [3] = biological target: T1, HIV-1 subtype B integrase; format: biochemical; conditions: Mn2+-based assay, 95% confidence interval in brackets
# Experimental: as §2
# Concentrations of enzymes used in the following reactions were optimized in a series of preliminary experiments. Integrase reactions were performed in a buffer containing 20 mM Hepes (pH 7.5), 30 mM NaCl, 1 mM dithiothreitol, 125 μM ZnCl2 and 0.125 pmol dsDNA substrate (INT1/2) in a final volume of 10 μl. […] Product analysis and quantification were conducted using ImageQuant and GraphPad Prism 4.0 software. Quantification of standard error of the mean (SEM) was performed with GraphPad Prism 4.0 software.
# [4] = biological target: T2, HIV-1 subtype C integrase; conditions: read-out: Strand Transfer IC50, Mg2+-based microtiter plate assay, 95% confidence interval in brackets
# Experimental: A microtiter plate assay was utilized to evaluate MgCl2-mediated strand transfer as previously described. Briefly, biotinylated oligonucleotides mimicking LTR donor DNA (5'-biotin-[…] and 5'-[…]) were immobilized onto black-colour Reacti-Bind Streptavidin-coated plates (ThermoFisher). 313 nM recombinant enzyme was bound to donor DNA on the plates in the presence of 25 mM […] and the plates were then washed to remove excess unbound enzyme. […] Covalently linked target DNA was detected through use of an anti-FITC antibody conjugated to alkaline phosphatase (Roche) and a chemiluminescence substrate (CSPD Sapphire II, Applied Biosystems). Integrase inhibitors were added at increasing concentrations shortly before the addition of target DNA. Strand transfer was evaluated by chemiluminescence.
# [5] = biological target: T1, HIV-1 subtype B integrase; format: biochemical; conditions: Mg2+-based microtiter plate assay, 95% confidence interval in brackets, read-out: Strand Transfer IC50
# Experimental: A microtiter plate assay was utilized to evaluate MgCl2-mediated strand transfer as previously described [24, 31]. Briefly, biotinylated oligonucleotides mimicking LTR donor DNA (5'-biotin-[sequence] and 5'-[sequence]) were immobilized onto black-colour Reacti-Bind Streptavidin-coated plates (ThermoFisher). 313 nM recombinant enzyme was bound to donor DNA on the plates in the presence of 25 mM MnCl2 and the plates were then washed to remove excess unbound enzyme. […] Covalently linked target DNA was detected through use of an anti-FITC antibody conjugated to alkaline phosphatase (Roche) and a chemiluminescence substrate (CSPD Sapphire II, Applied Biosystems). Integrase inhibitors were added at increasing concentrations shortly before the addition of target DNA. Strand transfer was evaluated by chemiluminescence.
# Subtype C virus Mole 03 = assay: Cell culture phenotypic drug susceptibility assay (p24 antigen) in cord blood mononuclear cells; format: cell-based, HIV-1
# Experimental: as §1
# Subtype B virus 5326 = assay: as above; format: cell-based, HIV-1; conditions: read-out: EC50 Values
# Experimental: as §1
# Subtype B virus BK 132 = assay: as above; format: cell-based, HIV-1; conditions: read-out: EC50 Values
# Experimental: as §1
# [6] = Human immunodeficiency virus 1, read-out: EC50 Values
Compound,Inhibition of disintegration [1],EC50 (Subtype C virus BG-05; [6]),EC50 (Subtype B virus 5331),EC50 (Subtype C virus 96USNG31; [6]),EC50 (Subtype B virus IIIb; IIIB),EC50 (Subtype C virus HB-1; [6]),EC50 (Subtype C virus 4742; [6]),EC50 (Subtype B virus pNL4-3),Inhibition of disintegration [2],further results
"COc1cc2c(cc1Cc1cccc(Cl)c1F)c(=O)c(C(=O)O)cn2[C@H](CO)C(C)C [EVG, elvitegravir]",neither RAL nor EVG had much effect,0.8 ± 0.04 nM,0.1 ± 0.07 nM,0.8 ± 0.6 nM,1.8 ± 0.6 nM,0.1 ± 0.01 nM,2.2 ± 0.2 nM,0.9 ± 0.3 nM,neither RAL nor EVG had much effect,
CCN1C[C@H](C)n2c(c(O)c3c(=O)n(Cc4ccc(F)c(Cl)c4)nc(C(=O)NC)c32)C1=O [MK-2048],inhibited by high concentrations of MK-2048,,,,,,,,inhibited by high concentrations of MK-2048,"IC50 ([3]; read-out: 3' Processing IC50): 580 nM; IC50 ([3]; read-out: Strand Transfer IC50): 75 nM; IC50 [4]: 2.3 nM; IC50 [5]: 4.7 nM; EC50 (Subtype C virus BG-05; Subtype C virus BG-05, cord blood mononuclear cells, p24 antigen, read-out: EC50 Values): 2.2 ± 0.7 nM; EC50 (Subtype C virus Mole 03; Subtype C virus Mole 03, cord blood mononuclear cells, p24 antigen, read-out: EC50 Values): 1.1 ± 0.1 nM; EC50 (Subtype B virus 5331; Subtype B virus 5331, cord blood mononuclear cells, p24 antigen): 1 ± 0.2 nM; EC50 (Subtype B virus 5326; Subtype B virus 5326, cord blood mononuclear cells, p24 antigen): 7.2 ± 2.1 nM; EC50 (Subtype C virus 96USNG31; Subtype C virus 96USNG31, cord blood mononuclear cells, p24 antigen, read-out: EC50 Values): 1.5 ± 0.1 nM; EC50 (Subtype B virus IIIb; Subtype B virus IIIb, cord blood mononuclear cells, p24 antigen): 0.3 ± 0.1 nM; EC50 (Subtype C virus HB-1; Subtype C virus HB-1, cord blood mononuclear cells, p24 antigen, read-out: EC50 Values): 0.7 ± 0.5 nM; EC50 (Subtype C virus 4742; Subtype C virus 4742, cord blood mononuclear cells, p24 antigen, read-out: EC50 Values): 3.3 ± 2 nM; EC50 (Subtype B virus pNL4-3; Subtype B virus pNL4-3, cord blood mononuclear cells, p24 antigen): 2.7 ± 0.9 nM; EC50 (Subtype B virus BK 132; Subtype B virus BK 132, cord blood mononuclear cells, p24 antigen): 14.8 ± 3.2 nM; IC50 ([2]; read-out: 3' Processing IC50, Mn2+-based assay, 95% confidence interval in brackets): 190 nM; IC50 ([2]; read-out: Strand Transfer IC50, Mn2+-based assay, 95% confidence interval in brackets): 80 nM"
"Cc1nnc(C(=O)NC(C)(C)c2nc(C(=O)NCc3ccc(F)cc3)c(O)c(=O)n2C)o1 [RAL, raltegravir]",neither RAL nor EVG had much effect,6.7 ± 0.9 nM,5.6 ± 2.2 nM,8.7 ± 0.7 nM,1.2 ± 0.5 nM,1.5 ± 0.4 nM,20.6 ± 9 nM,8.2 ± 1.3 nM,neither RAL nor EVG had much effect,EC50 (Subtype C virus Mole 03; [6]): 4.6 ± 0.2 nM; EC50 (Subtype B virus 5326): 24.3 ± 2.5 nM; EC50 (Subtype B virus BK 132): 30.1 ± 5.4 nM
